Measurements: patent US7625889B2, “Substituted bis aryl and heteroaryl compounds as selective 5HT2A antagonists” (Aventis Pharmaceuticals Inc., priority 2005, dated 2009)
pKi: −log10 of the molar value.

Target: T1, human 5HT2A receptor (Homo sapiens, UniProt P28223)
T1 construct: expressed in transfected cells
Assay: Receptor Binding Assay, 5HT2A ([3H]N-methyl spiperone)
Conditions: BHK cells expressing human 5HT2A receptor, 2.5 nM [3H]N-methyl spiperone, 37° C.
Method: Cell Culture: BHK cells stably expressing the human 5HT2A receptor were maintained in Dulbecco's Modified Eagle's Medium supplemented with […] Geneticin, 1% Sodium Pyruvate, 1% Pen-Strep and 10% Fetal Calf Serum, and treated with 5 mM sodium butyrate for 24 h to increase receptor expression before harvesting. Cells were harvested by mechanical scraping, washed with Phosphate Buffered Saline, and stored at −80° C. in 10% DMSO in 1 mg/mil aliquots until used. Protein determination was made according to Lowry.
Receptor Binding Assays: The 5HT2A and D2L assays were conducted at 37° C. in a Tris buffer containing salts (50 mM Tris Buffer, pH 7.7; 120 mM NaCl; 5 mM KCl; 2 mM CaCl2; 1 mM MgCl2). Cell membranes (previously prepared and frozen) were rapidly thawed. Membranes were diluted to an appropriate concentration (to produce 100 μg protein/assay point for 5HT2A, and 58 μg protein/assay point for D2L) in Tris buffer and homogenized. Assays were conducted on 96-well plates, using 2.5 and 1 nM [^3H]N-methyl spiperone as radioligand for 5HT2A and D2L assays, respectively. Plates were incubated at 37° C. in a shaking water bath for 30 and 60 min, for 5HT2A and D2L, respectively. Nonspecific binding was defined using 100 μM methylsergide and eticlopride, for 5HT2A and D2L, respectively.
Assays were terminated by rapid filtration through Millipore MAFB or MAFC (5HT2C) filter plates (presoaked in 50 mM Tris HCl, pH 7.7, with 0.1% Brij) using a Millipore Cell Harvester. The filter plates were then washed with ice-cold 50 mM Tris buffer, pH 7.7, and allowed to dry overnight. 50 μl of Microscint scintillation cocktail were added and the plates were counted in a Packard Topcount scintillation counter.
IC50 and Ki calculations were performed using nonlinear regression one-site competition analysis (GraphPad, Prism), with top and bottom limits held constant at 0% and 100% inhibition, respectively. The percent inhibition at each drug concentration was the average of duplicate determinations. Except where indicated, each determination was performed 2 to 5 times.

T1 sequence (P28223 whole entry): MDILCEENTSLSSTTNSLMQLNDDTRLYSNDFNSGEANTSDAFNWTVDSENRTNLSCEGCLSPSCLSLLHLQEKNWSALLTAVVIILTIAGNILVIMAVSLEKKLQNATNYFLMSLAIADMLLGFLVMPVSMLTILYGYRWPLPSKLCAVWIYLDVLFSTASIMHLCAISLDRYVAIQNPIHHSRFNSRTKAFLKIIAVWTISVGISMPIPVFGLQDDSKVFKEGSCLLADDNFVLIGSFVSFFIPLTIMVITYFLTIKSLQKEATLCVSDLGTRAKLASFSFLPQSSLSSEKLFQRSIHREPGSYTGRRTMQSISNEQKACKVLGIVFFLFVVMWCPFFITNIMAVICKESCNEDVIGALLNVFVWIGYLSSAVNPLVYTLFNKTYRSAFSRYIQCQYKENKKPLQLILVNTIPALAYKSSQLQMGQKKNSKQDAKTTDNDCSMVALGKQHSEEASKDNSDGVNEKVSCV

CN(C)CCN(Cc1ccccc1)Cc1cccc(-c2ccc3[nH]ccc3c2)c1 [Example 1, N-Benzyl-N-[3-(1H-indol-5-yl)-benzyl]-N′,N′-dimethyl-ethane-1,2-diamine]
pKi: 7.97

CN(C)CCN(Cc1ccccc1)Cc1cccc(-c2ccc3[nH]c(=O)sc3c2)c1 [Example 2]
pKi: 8.62

CN(C)CCN(Cc1ccccc1)Cc1cccc(-c2ccc3[nH]c(=O)n(C)c(=O)c3c2)c1 [Example 4]
pKi: 7.47

CN(C)CCN(Cc1ccccc1)Cc1cccc(-c2ccc3[nH]c(=O)[nH]c3c2)c1 [Example 5]
pKi: 6.66

CN(C)CCN(Cc1ccccc1)Cc1cccc(-c2ccc3[nH]ncc3c2)c1 [Example 6]
pKi: 8.57

CN(C)CCN(Cc1ccccc1)Cc1cccc(-c2cnc3c(c2)OCC(=O)N3)c1 [Example 7]
pKi: 6.68

CN1CCN(Cc2cccc(-c3ccc4[nH]c(=O)oc4c3)c2)CC1 [Example 8]
pKi: 7.45

CN1CCN(Cc2cccc(-c3ccc4[nH]nnc4c3)c2)CC1 [Example 9]
pKi: 6.64

CN1CCN(Cc2cc(-c3ccc4[nH]ccc4c3)ccc2F)C(c2cccnc2)C1 (centres unmarked) [Example 10]
pKi: 7.86

CN1CCN(Cc2cc(-c3ccc4[nH]c(=O)oc4c3)co2)[C@H](c2ccc(F)cc2)C1 [Example 11]
pKi: 7.79

CN1CCN(Cc2cc(-c3ccc4[nH]ccc4c3)ccc2F)C(c2ccccn2)C1 (centres unmarked) [Example 13]
pKi: 8.48

CN1CCN(Cc2ccc(-c3ccc4[nH]c(=O)oc4c3)o2)[C@@H](c2ccc(F)cc2)C1 [Example 14]
pKi: 8.85

CN1CCN(Cc2cc(-c3ccc4[nH]ccc4c3)ccc2F)C(c2ccc(C(F)(F)F)cc2)C1 (centres unmarked) [Example 15]
pKi: 7.86

CN(C)CCCN(Cc1ccccc1)Cc1cccc(-c2ccc3[nH]nnc3c2)c1 [Example 17, N-[3-(1H-Benzotriazol-5-yl)-benzyl]-N-benzyl-N′,N′-dimethyl-propane-1,3-diamine]
pKi: 8.14

CN(C)CCN(Cc1ccccc1)Cc1cccc(-c2ccc3[nH]cnc3c2)c1 [Example 18]
pKi: 7.13

CN(C)CCCN(Cc1ccccc1)Cc1cccc(-c2ccc3[nH]cnc3c2)c1 [Example 19]
pKi: 7.12

CN(C)CCN(Cc1cccc(-c2ccc3[nH]c(=O)oc3c2)c1)C(=O)c1ccccc1 [Example 24]
pKi: 9.25

CCN1CCCC1CN(Cc1cc(-c2ccc3[nH]c(=O)oc3c2)ccc1F)C(=O)c1ccc(F)cc1 (centres unmarked) [Example 25]
pKi: 9.22

CN1CCC(N(Cc2cccc(-c3ccc4[nH]ccc4c3)c2)C(=O)c2cccs2)CC1 [Example 28]
pKi: 9.15

CN1CCC(N(Cc2cc(-c3ccc4[nH]ccc4c3)ccc2F)C(=O)c2cccs2)CC1 [Example 29]
pKi: 9.15

CN(C)CCN(Cc1cccc(-c2ccc3[nH]c(=O)oc3c2)c1)C(=O)c1ccc(Cl)cc1 [Example 30]
pKi: 9.11

CCN1CCC[C@@H]1CN(Cc1cc(-c2ccc3[nH]c(=O)oc3c2)ccc1F)C(=O)c1ccc(F)cc1 [Example 31]
pKi: 9.04

CN(C)CCN(Cc1cccc(-c2ccc3[nH]c(=O)sc3c2)c1)C(=O)c1ccccc1 [Example 32]
pKi: 8.96

CN(C)CCN(Cc1cc(-c2ccc3[nH]ccc3c2)ccc1F)C(=O)c1cccs1 [Example 33]
pKi: 8.92

CN(C)CCN(Cc1cc(-c2ccc3[nH]cc(C#N)c3c2)ccc1F)C(=O)c1ccc(F)cc1 [Example 35]
pKi: 8.55

CN(C)CCCN(Cc1cccc(-c2ccc3[nH]c(=O)sc3c2)c1)C(=O)c1ccccc1 [Example 36]
pKi: 8.39

CN(C)CCN(Cc1cccc(-c2ccc3[nH]c(=O)sc3c2)c1)C(=O)c1ccc(Cl)cc1 [Example 37]
pKi: 8.39

O=C(c1ccc(F)cc1)N(Cc1cc(-c2ccc3[nH]ccc3c2)ccc1F)CC12CCN(CC1)CC2 [Example 38]
pKi: 7.84

O=C(c1ccc(F)cc1)N(CCN1CCCC1)Cc1cncc(-c2ccc3[nH]ccc3c2)c1 [Example 39]
pKi: 8.96

CN1CCC(N(Cc2ccc(F)c(-c3ccc4[nH]ccc4c3)c2)C(=O)c2ccc(F)cc2)CC1 [Example 40]
pKi: 9.24

O=c1[nH]c2ccc(-c3ccc(F)c(CN4CCNCC4c4cccs4)c3)cc2o1 (centres unmarked) [Example 43]
pKi: 9.22

Fc1ccc([C@H]2CNCCN2Cc2cc(-c3ccc4[nH]nnc4c3)ccc2F)cc1 [Example 45]
pKi: 9.00

CN(C)CCN(Cc1ccc(F)cc1)Cc1cncc(-c2ccc3[nH]c(=O)oc3c2)c1 [Example 48]
pKi: 9.22

CN(C)CCN(Cc1ccc(F)cc1)Cc1cncc(-c2ccc3[nH]ncc3c2)c1 [Example 49]
pKi: 9.40

CN(C)CCN(Cc1ccc(F)cc1)Cc1cc(-c2ccc3[nH]c(=O)oc3c2)co1 [Example 50]
pKi: 8.60

N#Cc1c[nH]c2ccc(-c3ccc(F)c(CN4CCNC[C@@H]4c4ccc(F)cc4)c3)cc12 [Example 51]
pKi: 8.04

CN1CCN(Cc2cc(-c3ccc4[nH]ccc4n3)ccc2F)[C@@H](c2ccc(F)cc2)C1 [Example 52]
pKi: 8.51

CCN1CCC[C@H]1CN(Cc1cc(-c2ccc3[nH]nnc3c2)ccc1F)C(=O)c1ccc(F)cc1 [Example 53, N-[5-(1H-Benzotriazol-5-yl)-2-fluoro-benzyl]-N-(1-ethyl-pyrrolidin-2S-ylmethyl)-4-fluoro-benzamide]
pKi: 8.67

O=C(c1ccc(F)cc1)N(CCN1CCCC1)Cc1cccc(-c2ccc3[nH]nnc3c2)c1 [Example 54]
pKi: 9.05

O=C(c1ccc(F)cc1)N(CCN1CCCC1)Cc1cc(-c2ccc3[nH]ncc3c2)ccc1F [Example 55]
pKi: 9.51

O=C(c1cccs1)N(CCN1CCCC1)Cc1cc(-c2ccc3[nH]nnc3c2)ccc1F [Example 56]
pKi: 8.19

O=C(c1ccc(F)cc1F)N(CCN1CCCC1)Cc1cc(-c2ccc3[nH]nnc3c2)ccc1F [Example 57]
pKi: 9.15

CN1C2CCC1CC(N(Cc1cc(-c3ccc4[nH]ncc4c3)ccc1F)C(=O)c1ccc(F)cc1)C2 (centres unmarked) [Example 58]
pKi: 8.91

CN1CCC(N(Cc2cc(-c3ccc4[nH]c(=O)oc4c3)ccc2F)C(=O)c2ccc(F)cc2)CC1 [Example 59]
pKi: 9.05

CN(C)CCN(Cc1cc(-c2ccc3c(c2)CCN3)ccc1F)C(=O)c1ccc(F)cc1 [Example 60]
pKi: 8.95

CN1CCCC(N(Cc2cc(-c3ccc4[nH]ncc4c3)ccc2F)C(=O)c2ccc(F)cc2)C1 (centres unmarked) [Example 61]
pKi: 9.15

CN1CC[C@@H](N(Cc2cc(-c3ccc4[nH]ncc4c3)ccc2F)C(=O)c2ccc(F)cc2)C1 [Example 62]
pKi: 9.12

CN1CC[C@H](N(Cc2cc(-c3ccc4[nH]ncc4c3)ccc2F)C(=O)c2ccc(F)cc2)C1 [Example 63]
pKi: 9.24

CN1CCCC(N(Cc2cc(-c3ccc4[nH]ncc4c3)ccc2F)C(=O)c2ccc(F)cc2)C1 (centres unmarked) [Example 64]
pKi: 9.22

CN1[C@@H]2CC[C@H]1C[C@H](N(Cc1cc(-c3ccc4[nH]ncc4c3)ccc1F)C(=O)c1ccc(F)cc1)C2 [Example 65]
pKi: 9.05

O=C(c1ccc(F)cc1)N(Cc1cc(-c2ccc3[nH]nnc3c2)ccc1F)C1CCNCC1 [Example 66]
pKi: 9.17

CC(C)N1CCC(N(Cc2cc(-c3ccc4[nH]nnc4c3)ccc2F)C(=O)c2ccc(F)cc2)CC1 [Example 67, N-[5-(1H-Benzotriazol-5-yl)-2-fluoro-benzyl]-4-fluoro-N-(1-isopropyl-piperidin-4-yl)-benzamide]
pKi: 8.67

O=C(c1ccc(F)cc1)N(Cc1cc(-c2ccc3[nH]nnc3c2)ccc1F)C1CCN(C2CC2)CC1 [Example 68, N-[5-(1H-Benzotriazol-5-yl)-2-fluoro-benzyl]-N-(1-cyclopropyl-piperidin-4-yl)-4-fluoro-benzamide]
pKi: 8.50
